Assays:
CYP3A4 = biological target: T1, CYP3A4 (Homo sapiens, UniProt P08684); test: CYP3A4 inhibitory in vitro assay (fluorometric inhibitor screening kit); format: biochemical; conditions: for inhibition at 150 µM: Concentration 150 (unit inferred); for inhibition at 200 µM: Concentration 200 (unit inferred)
T1 construct: purchased BioVision Inc. K702-200
Experimental: Briefly, incubations were conducted in a reaction volume of 200 μl/well in a 96-well microliter plate. For the calibration curve, resorufin (standard) was plotted by taking different concentrations (0, 4, 8, 12, 16, 20, 30, and 40 µl) of the 1 pmol/μl of the standard available in the kit. One mole of resorufin corresponds to the metabolism of 1 mol of the CYP3A4 substrate. […] The corresponding percentage inhibition due to the test ligand or positive inhibition control was calculated. CYP3A4 activities observed with punicalagin at varying concentrations (50,100, 150, 200, 250, and 300 µM) were noted down ([Hidaka et al., 2005]; [Faria et al., 2007]). The concentration at which 50% of the CYP3A4 activity is inhibited (IC50) was noted down. The logarithm values were plotted onto the graphs. Each compound was tested in triplicates. Inhibition curves were plotted from the log values of the concentration of the samples vs. the percentage inhibition calculated.

[1] = Pharmacokinetics of TAC in Wistar rats with and without oral PRE (LC-MS/MS of plasma); format: in vivo
Experimental: The assessment of TAC in all the samples was done with the help of the LC-MS/MS method. Samples were prepared following the method stated by [Shokati et al. (2015)]. After the preparation of samples, the supernatant was then used further for investigation. An aliquot of 10 μL was injected into the LC-MS/MS system. The column used for analysis was Eclipse XDB C-18 with 100 mm × […] × 3.5 um) with a flow rate of 1.5 ml/min (LC flow split to MS as 0.45 ml/min). The mobile phase used was a mixture of solvent A (acetonitrile) and solvent B (ammonium acetate in water) including 0.1% formic acid in a ratio of 95:05 v/v with a run time of 2 min isocratic (Supplementary Table S2. The compounds were detected by tandem mass spectrometry using electrospray ionization in the positive mode and using ion transitions m/z 821.5 -> 768.0 for TAC (standard) and m/z 721.1 -> 296.1 for ritonavir (internal standard).
Extraction of the drug from the plasma was carried out by the precipitation method. An aliquot of drug-free plasma spiked with 50 μl of ZnSO4 solution and 300 μl of methanol/acetonitrile (50:50, v/v) including IS was added. The mixture was vortex mixed for 30 s and centrifuged at 14,000 g (2000 rpm) at […] for 5 min. The supernatant solution was separated and filtered through a 0.45-µ membrane filter and stored at −20°C until use for analysis. The aforementioned extraction procedure was followed for all plasma samples, calibration curve samples, and QC samples. The optimization of the extraction procedure was required to reduce variation in the area of IS and improve injection to injection reproducibility. The schematic flow chart for the extraction procedure is depicted in Figure 1.
TAC (3 mg/kg) was administered orally to experimental rats (N = 6), and in another group, PRE at a dosage of 200 mg/kg was orally co-administered with TAC dosage of 3 mg/kg in a similar manner to six rats. Both groups were given a volume of 10 ml/kg which was a single dose to all animals. Blood samples were drawn at regular intervals, and the blood plasma concentration of TAC was assessed with the help of the validated LC-MS/MS technique ([Sattler et al., 1992]; [Alanbaki et al., 2019]).
Pretreatment of PRE (200 mg/kg) for a period of six consecutive days was done in group 2, and afterward, on the 7th day, in group 2, PRE (200 mg/kg) was co-administered with TAC (3 mg/kg) to experimental animals (N = 6). In group 1, a single dose of TAC (3 mg/kg) was administered to the animals at a volume of 10 ml/kg body weight.
To study the dose–effect relationship, the Wistar rats were equally distributed into five groups (N = 6 rats/group). PRE at a dose of 100, 200, 400, and 800 mg/kg was given by oral route to the rats, co-administrated with TAC (3 mg/kg). The drug TAC at a dose of 3 mg/kg was given similarly to all the rats in another group, with a volume of 10 ml/kg body weight. Blood was collected from the retro-orbital plexus, and the plasma samples were separated.
The experimental animals were fasted for 12 h before the collection of blood. A total of 300 μL of blood were collected in Eppendorf tubes containing heparinized solution at different time intervals (0, 0.5, 1.0, 2.0, 4.0, 8.0, 12, and 24 h). Plasma was separated and approximately 100 μl of samples was pipetted in the tubes (Figure 2). A total of 300 μl of methanol/acetonitrile (50:50, v/v) and 50 μl of ZnSO4 solution were added, and the solution was vortexed for 30 s and centrifuged at 14,000 g (2000 rpm) for 10 min (Figure 2). All the samples were stored at −20°C until further analysis ([Anlamlert and Sermsappasuk, 2020]).
Pharmacokinetic parameters such as time to reach the maximum concentration (Tmax) and Cmax of TAC were read from the […] (observed blood concentration vs. time profile). AUC0-12 was calculated with the help of a linear trapezoidal rule (Drug and Statistics (DAS) software version 2.1.1). […]

[2] = human, probe kit CYP3A4 substrate metabolised to resorufin (not named), read-out: % Relative Inhibition

T1 sequence (P08684 whole entry): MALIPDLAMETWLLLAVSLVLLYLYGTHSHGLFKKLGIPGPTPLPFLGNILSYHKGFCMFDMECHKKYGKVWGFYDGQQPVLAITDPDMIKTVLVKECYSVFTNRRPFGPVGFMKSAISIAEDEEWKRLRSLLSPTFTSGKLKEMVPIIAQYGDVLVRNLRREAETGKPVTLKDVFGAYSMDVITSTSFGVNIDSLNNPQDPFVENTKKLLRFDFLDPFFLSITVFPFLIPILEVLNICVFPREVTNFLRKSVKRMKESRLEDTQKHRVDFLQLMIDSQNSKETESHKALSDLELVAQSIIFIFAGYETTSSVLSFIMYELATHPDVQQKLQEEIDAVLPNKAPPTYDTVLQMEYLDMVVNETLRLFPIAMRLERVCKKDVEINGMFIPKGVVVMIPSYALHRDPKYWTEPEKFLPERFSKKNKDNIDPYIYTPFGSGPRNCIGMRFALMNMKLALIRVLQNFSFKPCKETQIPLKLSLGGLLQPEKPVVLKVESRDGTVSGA

| SMILES | inhibition at 50 µM (CYP3A4; human, probe kit CYP3A4 substrate metabolised to resorufin (not named), Concentration 50 (unit inferred), read-out: % Relative Inhibition) [%] | inhibition at 100 µM (CYP3A4; human, probe kit CYP3A4 substrate metabolised to resorufin (not named), Concentration 100 (unit inferred), read-out: % Relative Inhibition) [%] | inhibition at 150 µM (CYP3A4; [2]) [%] | inhibition at 200 µM (CYP3A4; [2]) [%] | inhibition at 250 µM (CYP3A4; human, probe kit CYP3A4 substrate metabolised to resorufin (not named), Concentration 250 (unit inferred), read-out: % Relative Inhibition) [%] | inhibition at 300 µM (CYP3A4; human, probe kit CYP3A4 substrate metabolised to resorufin (not named), Concentration 300 (unit inferred), read-out: % Relative Inhibition) [%] | CYP3A4 inhibitory activity (CYP3A4; varied concentrations) | Mean plasma concentration of TAC ([1]; TAC 3 mg/kg co-administered with PRE 800 mg/kg, multiple-dose study) | AUC0-12 of TAC ([1]; TAC 3 mg/kg co-administered with PRE 100, 200, 400, 800 mg/kg) | Average plasma concentration of TAC ([1]; TAC 3 mg/kg co-administered with PRE 100 to 400 mg/kg, multiple-dose study) | t1/2 of TAC ([1]; TAC 3 mg/kg co-administered with PRE varied doses) | AUC0-inf of TAC ([1]; TAC 3 mg/kg p.o. alone) [ngh/ml] | Cmax ([1]; Wistar, po, TAC 3 mg/kg p.o. alone, rat plasma) [ng/mL] | Tmax ([1]; Wistar, rat, plasma, po, TAC 3 mg/kg p.o. alone) [min] | half-life ([1]; Wistar, rat, plasma, po, TAC 3 mg/kg p.o. alone, read-out: t1/2 of TAC (converted)) [min] |
| --- | --- | --- | --- | --- | --- | --- | --- | --- | --- | --- | --- | --- | --- | --- | --- |
| O=C1O[C@H]2[C@@H]3OC(=O)c4cc(O)c(O)c(O)c4-c4c(O)c(O)c5oc(=O)c6c(c(O)c(O)c7oc(=O)c4c5c76)-c4c(cc(O)c(O)c4O)C(=O)OC[C@H]3OC(O)[C@@H]2OC(=O)c2cc(O)c(O)c(O)c2-c2c1cc(O)c(O)c2O (mixture of isomers) [Punicalagin] | 89.1 | 76.2 | 64.5 | 52.5 | 35.2 | 11.4 | exhibits CYP3A4 inhibitory activity | – | – | – | – | – | – | – | – |
| CC(=O)N1CCN(c2ccc(OCC3COC(Cn4ccnc4)(c4ccc(Cl)cc4Cl)O3)cc2)CC1 (centres unmarked) [Ketoconazole] | – | – | 72.5 | 55 | – | – | – | – | – | – | – | – | – | – | – |
| C=CC[C@@H]1/C=C(\C)C[C@H](C)C[C@H](OC)[C@H]2O[C@@](O)(C(=O)C(=O)N3CCCC[C@H]3C(=O)O[C@H](/C(C)=C/[C@@H]3CC[C@@H](O)[C@H](OC)C3)[C@H](C)[C@@H](O)CC1=O)[C@H](C)C[C@@H]2OC [TAC, Tacrolimus] | – | – | – | – | – | – | – | does not increase | increased with an increase in PRE doses | increases with an increase in PRE dose | prolonged | 61.91 ± 17.37 | 9.03 ± 1.21 | 54.6 ± 10.8 | 7.2 ± 2.4 |

— PMC10154516, “Potential profound fluctuation in tacrolimus concentration on consumption of pomegranate rind extract: A Pharmacokinetic Experiment” (Frontiers in Pharmacology, 2023)
